Some results are limits rather than exact numbers.

Broadly, the IC50 is the point on the concentration scale where inhibition reaches its midpoint.

One data set has as its target T1, Recombinant EGFR (Homo sapiens, UniProt P00533).
T1 construct: purchased Invitrogen
Kind of data set: EGFR binding affinity (TR-FRET). To be noted: 2.5 nM recombinant EGFR, five hours incubation, Table 3 categories. How it is done:
EGFR binding affinity was determined using a time-resolved fluorescence resonance energy transfer (TR-FRET) methodology. 2.5 nM Recombinant EGFR, varying concentrations of inhibitor, 2 nM LanthaScreen™ Eu anti-GST Antibody and 3 nM Kinase Tracer 199 was incubated in 1× LanthaScreen™ Kinase Buffer A for five hours. Recombinant EGFR and all LanthaScreen™ components were purchased from Invitrogen. Measurements were performed in a reaction volume of 30 μL using half-area 96-well assay plates. The TR-FRET signal was read on a plate reader with an excitation wavelength of 340 nm and detection wavelengths of 615 and 665 nm. Binding affinity was determined for each compound by measuring TR-FRET signal at various concentrations of compound and plotting the relative fluorescence units against the inhibitor concentration to estimate the IC50 from log [Inhibitor] vs response using the Variable Slope model in Graphpad prism from Graphpad software (SanDiego, Calif.).
A general note: Time-resolved FRET reads energy transfer from a long-lived donor to a nearby acceptor.

A further data set has as its system TMD8 human DLBCL cells. Briefly: TMD8 growth assay. In kind it is cell-based. To be noted: 72 hours, Resazurin, Table 3 categories. As for the experimental part:
Compounds were assayed for effects on the growth of TMD8 human DLBCL cells that are dependent on NFκB signalling. TMD8 cells were grown in suspension in T225 flasks, centrifuged and re-suspended in 2.5% FBS containing media. Cells were then plated at 1.0×10^4 cells per well in 96-well plates in varying concentrations of compound and incubated for 72 hours at 37° C. An additional plate of cells to be used as the Day 0 read was seeded without compound addition, Resazurin was added to each well, incubated for 5 h and the fluorescence measured at 590 nm. After 72 h of compound treatment, Resazurin was added to each well of the compound treated plates, incubated for 5 hours and the fluorescence measured at 590 nm. The IC50 was then calculated but subtracting the average Day 0 value from each well value from the treated plates, each treatment was then calculated as a percentage of the DMSO control and the percentages plotted against the inhibitor concentration to estimate the IC50 from log [Inhibitor] vs response using the Variable Slope model in Graphpad prism from Graphpad software (San Diego, Calif.).
On the technique in general: The colour change of resazurin is a common sign of viable cells or microbes.

Another data set concerns the target T2, Recombinant BTK kinase (Homo sapiens, UniProt Q06187).
T2 construct: purchased Invitrogen
Kind of data set: BTK binding affinity (TR-FRET). How it is done:
BTK binding affinity of each compound tested was determined using a time-resolved fluorescence resonance energy transfer (TR-FRET) methodology. 2.5 nM Recombinant BTK kinase, varying concentrations of inhibitor, 2 nM LanthaScreen™ Eu anti-His Antibody and 15 nM Kinase Tracer 236 was incubated in 1× LanthaScreen™ Kinase Buffer A for five hours. Recombinant BTK kinase and all LanthaScreen™ components were purchased from Invitrogen. Measurements were performed in a reaction volume of 30 μL using half-area 96-well assay plates. The TR-FRET signal was read on a plate reader with an excitation wavelength of 340 nm and detection wavelengths of 615 and 665 nm. Binding affinity was determined for each compound by measuring TR-FRET signal at various concentrations of compound and plotting the relative fluorescence units against the inhibitor concentration to estimate the IC50 from log [Inhibitor] vs response using the Variable Slope model in Graphpad prism from Graphpad software (SanDiego, Calif.).

For data set [1] the following is noted: rat; cited from earlier work.
Where [2] appears, read: 2.5 nM recombinant BTK, five hours incubation, Table 3 categories.

T2 sequence (Q06187 whole entry): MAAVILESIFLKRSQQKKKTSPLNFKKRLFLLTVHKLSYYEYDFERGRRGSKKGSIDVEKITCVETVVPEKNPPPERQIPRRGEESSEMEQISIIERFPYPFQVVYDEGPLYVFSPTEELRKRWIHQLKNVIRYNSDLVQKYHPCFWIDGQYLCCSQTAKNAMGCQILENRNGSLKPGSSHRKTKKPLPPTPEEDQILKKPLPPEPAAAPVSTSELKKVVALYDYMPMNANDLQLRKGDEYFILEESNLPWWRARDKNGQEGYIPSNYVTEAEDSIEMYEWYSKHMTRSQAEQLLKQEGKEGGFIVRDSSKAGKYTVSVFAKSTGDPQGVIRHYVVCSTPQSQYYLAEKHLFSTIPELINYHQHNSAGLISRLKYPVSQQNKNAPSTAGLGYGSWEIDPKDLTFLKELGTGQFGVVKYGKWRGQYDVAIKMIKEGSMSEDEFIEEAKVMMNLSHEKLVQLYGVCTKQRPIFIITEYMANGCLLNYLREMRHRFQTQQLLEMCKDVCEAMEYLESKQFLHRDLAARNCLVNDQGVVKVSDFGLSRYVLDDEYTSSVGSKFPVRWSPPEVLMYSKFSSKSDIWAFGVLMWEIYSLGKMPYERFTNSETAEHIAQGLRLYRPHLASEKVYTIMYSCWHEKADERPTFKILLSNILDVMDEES
T1 sequence (P00533 25-1210): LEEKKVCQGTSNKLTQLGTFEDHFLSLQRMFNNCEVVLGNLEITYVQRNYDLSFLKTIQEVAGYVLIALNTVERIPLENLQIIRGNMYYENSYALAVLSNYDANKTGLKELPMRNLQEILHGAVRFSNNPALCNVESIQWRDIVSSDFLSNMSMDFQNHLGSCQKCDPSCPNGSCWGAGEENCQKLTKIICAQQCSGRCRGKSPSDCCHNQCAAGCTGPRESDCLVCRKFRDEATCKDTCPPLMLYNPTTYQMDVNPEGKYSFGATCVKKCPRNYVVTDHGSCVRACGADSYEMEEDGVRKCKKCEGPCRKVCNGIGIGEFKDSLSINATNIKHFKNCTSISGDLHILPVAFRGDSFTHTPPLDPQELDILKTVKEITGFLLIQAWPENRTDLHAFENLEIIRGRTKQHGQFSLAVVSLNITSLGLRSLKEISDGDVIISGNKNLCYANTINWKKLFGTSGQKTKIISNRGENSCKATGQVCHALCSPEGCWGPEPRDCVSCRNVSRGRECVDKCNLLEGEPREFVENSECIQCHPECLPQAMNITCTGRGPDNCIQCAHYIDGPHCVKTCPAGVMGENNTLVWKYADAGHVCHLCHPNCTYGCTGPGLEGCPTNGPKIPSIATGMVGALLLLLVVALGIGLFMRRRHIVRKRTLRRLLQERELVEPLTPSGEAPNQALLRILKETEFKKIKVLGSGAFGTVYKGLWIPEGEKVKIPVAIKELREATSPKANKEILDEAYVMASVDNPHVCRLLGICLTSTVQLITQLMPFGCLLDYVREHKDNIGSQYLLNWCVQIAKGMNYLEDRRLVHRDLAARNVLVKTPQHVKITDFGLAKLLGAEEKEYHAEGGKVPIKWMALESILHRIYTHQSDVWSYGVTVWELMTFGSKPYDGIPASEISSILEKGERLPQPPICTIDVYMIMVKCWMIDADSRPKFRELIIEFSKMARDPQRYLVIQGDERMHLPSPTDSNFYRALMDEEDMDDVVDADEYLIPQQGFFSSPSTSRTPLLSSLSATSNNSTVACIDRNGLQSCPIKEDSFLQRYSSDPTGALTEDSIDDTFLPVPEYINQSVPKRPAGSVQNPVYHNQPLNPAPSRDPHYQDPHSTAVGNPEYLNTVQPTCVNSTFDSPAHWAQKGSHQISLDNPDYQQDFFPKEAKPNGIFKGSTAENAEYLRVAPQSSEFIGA

Regarding `C=CC(=O)N1CCC[C@@H](n2nc(-c3ccc(CNC(=O)c4ccc(C)cc4OC)cc3)c3c(N)ncnc32)C1` [ID No. 15, N-[[4-[4-amino-1-[(3R)-1-prop-2-enoyl-3-piperidyl]pyrazolo[3,4-d]pyrimidin-3-yl]phenyl]methyl]-2-methoxy-4-methyl-benzamide], the IC50 was 25 to 80 nM at Recombinant EGFR, less than 5 nM with TMD8 human DLBCL cells, 0.5 to 1 nM at Recombinant BTK kinase (setting [2]) and 0.7 nM on Recombinant BTK kinase (Table 4 numeric values).
In the case of `C=CC(=O)N1CCC[C@@H](n2nc(-c3ccc(CNC(=O)c4ccc(C(F)(F)F)cc4F)cc3)c3c(N)ncnc32)C1` [ID No. 36, N-[[4-[4-amino-1-[(3R)-1-prop-2-enoyl-3-piperidyl]pyrazolo[3,4-d]pyrimidin-3-yl]phenyl]methyl]-2-fluoro-4-(trifluoromethyl)benzamide], the IC50 is less than 25 nM on Recombinant EGFR, 25 to 300 nM in the data set with TMD8 human DLBCL cells and 1 to 10 nM at Recombinant BTK kinase (setting [2]).
Turning to `C=CC(=O)N1CCC[C@@H](n2nc(-c3ccc(Oc4ccccc4)cc3)c3c(N)ncnc32)C1` [Ibrutinib], in data set [1], the bioavailability entry is recorded as “poor” and the estimated fraction absorbed entry is on record as “low”.

Source of the values: patent US9975897B2, “Pyrazolopyrimidine derivatives useful as inhibitors of Bruton's tyrosine kinase” (Loxo Oncology, Inc., priority 2014, dated 2018).
